{
  "source": "patent US11345669B2",
  "about": "“Urea derivatives and methods of use thereof” (NodThera Limited, priority 2017, dated 2022)",
  "data": [
    {"tested_on": "IL1-β release upon NLRP3 activation in peripheral blood mononuclear cells (PBMC)", "assay": "PBMC IC50 Determination Assay", "type": "cell-based", "conditions": "Homo sapiens, PBMC, read-out: PBMCs, IC50, μM", "procedure": "(§1) PBMC IC50 Determination Assay\n(§2) The compounds of the present disclosure were tested for their inhibitory activity against IL1-β release upon NLRP3 activation in peripheral blood mononuclear cells (PBMC).\n(§3) Isolated cells were seeded into the wells of a 96-well plate and incubated for 3 h with lipopolysaccharide (LPS). Following medium exchange, the compounds of the present disclosure were added (a single compound per well) and the cells were incubated for 30 min. Next, the cells were stimulated either with ATP (5 mM) or nigericin (10 μM) for 1 h and the cell culture media from the wells were collected for further analysis.\n(§4) The release of IL-1β into the media was determined by a quantitative detection of IL-1β in 5 the media using an IL-1β enzyme-linked immunosorbent assay (ELISA) Ready-SET-Go!, eBioscience cat. […] Subsequently, plates were blocked with blocking buffer for 1 h at room temperature (rt) and after washing with a buffer (PBS with 0.05% Tween-20) incubated with protein standard and culture media. […] Plates were washed and incubated with HRP-streptavidin for 30 min at rt and washed again. The signal was developed after addition of 3,39,S,59-tetramethylbenzidine-peroxidase (TMB) until color appeared and the reaction was stopped by 2 M H2SO4. A microplate spectrophotometer (BioTek) was used to detect signals with 450 nm. The detection range of IL-1β ELISA was […].", "units": {"IC50": "µM"}, "values": [
      {"smiles": "COC(=O)CC[C@@H](NC(=O)Nc1c2c(cc3c1CCC3)CCC2)C(=O)OC", "note": "[Example 2S, 1,5-dimethyl(2R)-2-{[(1,2,3,5,6,7-hexahydro-s-indacen-4-yl)carbamoyl]amino}pentanedioate]", "IC50": 3.5}
    ]},
    {"tested_on": "IL1-β release upon NLRP3 activation in peripheral blood mononuclear cells (PBMC)", "assay": "PBMC IC50 Determination Assay", "type": "cell-based", "conditions": "Homo sapiens; PBMC from buffy coats, LPS 3 h, compound 30 min, then ATP (5 mM) or nigericin (10 μM) for 1 h; IL-1β in media by ELISA; read-out: PBMCs, IC50", "procedure": "as §1, §2, §3, §4", "units": {"IC50": "µM"}, "values": [
      {"smiles": "COC(=O)C(Cc1cccc(C(C)=O)c1)NC(=O)Nc1c2c(cc3c1CCC3)CCC2", "note": "(stereo not drawn) [Example 2C, Methyl 3-(3-acetylphenyl)-2-{[(1,2,3,5,6,7-hexahydro-s-indacen-4-yl)carbamoyl]amino}propanoate]", "IC50": 0.35},
      {"smiles": "COC(=O)[C@@H](Cc1cnccn1)NC(=O)Nc1c2c(cc3c1CCC3)CCC2", "note": "[Example 2AF, Methyl (2R)-2-{[(1,2,3,5,6,7-hexahydro-s-indacen-4-yl)carbamoyl]amino}-3-(pyrazin-2-yl)propanoate]", "IC50": 0.46},
      {"smiles": "CCOC(=O)C(Cc1cnoc1)NC(=O)Nc1c2c(cc3c1CCC3)CCC2", "note": "(stereo not drawn) [Example 2ZZ, Ethyl 2-{[(1,2,3,5,6,7-hexahydro-s-indacen-4-yl)carbamoyl]amino}-3-(1,2-oxazol-4-yl)propanoate]", "IC50": 3.3},
      {"smiles": "COCCOC(=O)[C@@H](Cc1cccnc1)NC(=O)Nc1c2c(cc3c1CCC3)CCC2", "note": "[Example 2MM, 2-methoxyethyl(2R)-2-{[(1,2,3,5,6,7-hexahydro-s-indacen-4-yl)carbamoyl]amino}-3-(pyridin-3-yl)propanoate]", "IC50": 2.9},
      {"smiles": "COC(=O)C(Cc1cccc(-c2cncn2C)c1)NC(=O)Nc1c2c(cc3c1CCC3)CCC2", "note": "(stereo not drawn) [Example 2I, Methyl 2-{[(1,2,3,5,6,7-hexahydro-s-indacen-4-yl)carbamoyl]amino}-3-[3-(1-methyl-1H-imidazol-5-yl)phenyl]propanoate]", "IC50": 0.96},
      {"smiles": "COC(=O)[C@@H](Cc1cccc(O)c1)NC(=O)Nc1c2c(cc3c1CCC3)CCC2", "note": "[Example 2K, Methyl(2R)-2-{[(1,2,3,5,6,7-hexahydro-s-indacen-4-yl)carbamoyl]amino}-3-(3-hydroxyphenyl)propanoate]", "IC50": 1.3},
      {"smiles": "CCOC(=O)[C@@H](Cc1cccnc1)NC(=O)Nc1cc2c(cc1C(C)C)CCC2", "note": "[Example 2AD, Ethyl (2R)-2-({[6-(propan-2-yl)-2,3-dihydro-1H-inden-5-yl]carbamoyl}amino)-3-(pyridin-3-yl)propanoate]", "IC50": 2.9},
      {"smiles": "COC(=O)[C@@H](CC#N)NC(=O)Nc1c2c(cc3c1CCC3)CCC2", "note": "[Example 2QQ, methyl(2R)-3-cyano-2-{[(1,2,3,5,6,7-hexahydro-s-indacen-4yl)carbamoyl]amino}propanoate]", "IC50": "< 10"},
      {"smiles": "COC(=O)[C@@H](CC(N)=O)NC(=O)Nc1c2c(cc3c1CCC3)CCC2", "note": "[Example 2BB, methyl(2R)-3-carbamoyl-2-{[(1,2,3,5,6,7-hexahydro-s-indacen-4yl)carbamoyl]amino}propanoate]", "IC50": 32},
      {"smiles": "COC(=O)C(Cn1cc(C)cn1)NC(=O)Nc1c2c(cc3c1CCC3)CCC2", "note": "(stereo not drawn) [Example 2TT, Methyl 2-{[(1,2,3,5,6,7-hexahydro-s-indacen-4-yl)carbamoyl]amino}-3-(4-methyl-1H-pyrazol-1-yl)propanoate]", "IC50": 14},
      {"smiles": "O=C(Nc1c2c(cc3c1CCC3)CCC2)N[C@H](Cc1cccc(-c2cc[nH]n2)c1)C(=O)O", "note": "[Example 2V, (2R)-2-{[(1,2,3,5,6,7-hexahydro-s-indacen-4-yl)carbamoyl]amino}-3-[3-(1H-pyrazol-3-yl)phenyl]propanoic acid]", "IC50": 0.52},
      {"smiles": "O=C(Nc1c2c(cc3c1CCC3)CCC2)N[C@H](Cc1cccnc1)C(=O)OC1CCCC1", "note": "[Example 2PP, cyclopentyl(2R)-2-{[(1,2,3,5,6,7-hexahydro-s-indacen-4-yl)carbamoyl]amino}-3-(pyridin-3-yl)propanoate]", "IC50": 0.24},
      {"smiles": "COC(=O)[C@@H](Cc1cncnc1)NC(=O)Nc1c2c(cc3c1CCC3)CCC2", "note": "[Example 2AE, Methyl (2R)-2-{[(1,2,3,5,6,7-hexahydro-s-indacen-4-yl)carbamoyl]amino}-3-(pyrimidin-5-yl)propanoate]", "IC50": 4.5},
      {"smiles": "O=C(Nc1c2c(cc3c1CCC3)CCC2)N[C@H](Cc1cccnc1)C(=O)OCC1CC1", "note": "[Example 2OO, cyclopropylmethyl(2R)-2-{[(1,2,3,5,6,7-hexahydro-s-indacen-4-yl)carbamoyl]amino}-3-(pyridin-3-yl)propanoate]", "IC50": 0.47},
      {"smiles": "CCOC(=O)[C@@H](Cc1cccnc1)NC(=O)Nc1c2c(cc3c1CCC3)CCC2", "note": "[Example 2RR, ethyl(2R)-2-{[(1,2,3,5,6,7-hexahydro-s-indacen-4-yl)carbamoyl]amino}-3-(pyridin-3-yl)propanoate]", "IC50": 1.7},
      {"smiles": "COC(=O)C[C@@H](NC(=O)Nc1c2c(cc3c1CCC3)CCC2)C(=O)OC", "note": "[Example 2W, 1,4-dimethyl(2R)-2-{[(1,2,3,5,6,7-hexahydro-s-indacen-4-yl)carbamoyl]amino}butanedioate]", "IC50": 2.9},
      {"smiles": "O=C(Nc1c2c(cc3c1CCC3)CCC2)N[C@H](Cc1cccnc1)C(=O)O", "note": "[Example 2LL, (2R)-2-{[(1,2,3,5,6,7-hexahydro-s-indacen-4-yl)carbamoyl]amino}-3-(pyridin-3-yl)propanoic acid]", "IC50": 2},
      {"smiles": "COC(=O)[C@@H](Cc1cccc(-c2cc[nH]n2)c1)NC(=O)Nc1c2c(cc3c1CCC3)CCC2", "note": "[Example 2L, Methyl (2R)-2-{[(1,2,3,5,6,7-hexahydro-s-indacen-4-yl)carbamoyl]amino}-3-[3-(1H-pyrazol-3-yl)phenyl]propanoate]", "IC50": 0.14},
      {"smiles": "COC(=O)CNC(=O)Nc1c2c(cc3c1CCC3)CCC2", "note": "[Example 2EE, methyl 2-{[(1,2,3,5,6,7-hexahydro-s-indacen-4-yl)carbamoyl]amino}acetate]", "IC50": 3.7},
      {"smiles": "COC(=O)C(Cc1cccc(CO)c1)NC(=O)Nc1c2c(cc3c1CCC3)CCC2", "note": "(stereo not drawn) [Example 2G, Methyl2-{[(1,2,3,5,6,7-hexahydro-s-indacen-4-yl)carbamoyl]amino}-3-[3-(hydroxymethyl)phenyl]propanoate]", "IC50": 1.4},
      {"smiles": "COC(=O)[C@@H](Cc1ccc(O)cc1)NC(=O)Nc1c2c(cc3c1CCC3)CCC2", "note": "[Example 2Z, methyl(2R)-2-{[(1,2,3,5,6,7-hexahydro-s-indacen-4-yl)carbamoyl]amino}-3-(4-hydroxyphenyl)propanoate]", "IC50": 0.1},
      {"smiles": "COC(=O)C(Cc1ccccc1O)NC(=O)Nc1c2c(cc3c1CCC3)CCC2", "note": "(stereo not drawn) [Example 2B, Methyl2-{[(1,2,3,5,6,7-hexahydro-s-indacen-4-yl)carbamoyl]amino}-3-(2-hydroxyphenyl)propanoate]", "IC50": 0.06},
      {"smiles": "COC(=O)[C@@H](Cc1cccc(Nc2cc[nH]n2)c1)NC(=O)Nc1c2c(cc3c1CCC3)CCC2", "note": "[Example 2U, Methyl(2R)-2-{[(1,2,3,5,6,7-hexahydro-s-indacen-4-yl)carbamoyl]amino}-3-{3-[(1H-pyrazol-3-yl)amino]phenyl}propanoate]", "IC50": 0.31},
      {"smiles": "COC(=O)[C@@H](Cc1cccs1)NC(=O)Nc1c2c(cc3c1CCC3)CCC2", "note": "[Example 2CC, methyl (2R)-2-{[(1,2,3,5,6,7-hexahydro-s-indacen-4-yl)carbamoyl]amino}-3-(thiophen-2-yl)propanoate]", "IC50": 0.5},
      {"smiles": "COC(=O)[C@@H](Cc1ccc(C#N)cc1)NC(=O)Nc1c2c(cc3c1CCC3)CCC2", "note": "[Example 2D, Methyl (2R)-3-(4-cyanophenyl)-2-{[(1,2,3,5,6,7-hexahydro-s-indacen-4-yl)carbamoyl]amino}propanoate]", "IC50": 1.4},
      {"smiles": "COC(=O)[C@@H](Cc1cccc(NC(C)=O)c1)NC(=O)Nc1c2c(cc3c1CCC3)CCC2", "note": "[Example 2P, Methyl(2R)-3-(3-acetamidophenyl)-2-{[(1,2,3,5,6,7-hexahydro-s-indacen-4-yl)carbamoyl]amino}propanoate]", "IC50": 0.14}
    ]}
  ]
}
